This note sets out measurements from US11229620B2, “3-methanesulfonylpropionitrile for treating inflammation and/or pain” (OLATEC THERAPEUTICS LLC, priority 2010, dated 2022).

One series relates to IL-1β. Description: In vitro cytokine release from human PBMCs: IL-1β. The series is classed as cell-based. Conditions: PBMC, lipopolysaccharide 50 pg/mL, 24 hours, read-out: inhibited the release of IL-1β. The protocol: (§1) 3-methanesulfonylpropionitrile (MSPN, prepared according to Example 1 was tested for its effects on in vitro cytokine release from human peripheral blood mononuclear cells (PBMCs). Secretion of cytokines by PBMCs plays a significant role in the inflammatory response.
(§2) MSPN was added to cultures of fresh human PBMCs at 162 μM (22 μg/mL) in duplicate. One hour later, PBMCs were stimulated to secrete cytokines using the mitogens lipopolysaccharide and concanavalin A (ConA). Lipopolysaccharide at 50 pg/mL was used to stimulate the release of interleukin IL-1β, IL-6 and tumor necrosis factor TNFα. ConA at 20 μg/mL was used to stimulate the release of IL-4 and ConA at 5 μg/mL was used to stimulate interferon IFNγ. The corticosteroid dexamethasone (100 nM) was used as a positive control. After 24 hours of incubation, the supernatants were assayed for the cytokines using the Luminex Bead kit. MSPN at 22 μg/mL inhibited the release of IL-1β, IL-6, TNFα, IL-4 and IFNγ by 95%, 98%, 98%, 7% and 21%, respectively. Dexamethasone inhibited the release of IL-1β, IL-6, TNFα, IL-4 and IFNγ by 24%, 60%, 42%, 93% and 87%, respectively.

Another series relates to IL-6. Nature of the series: In vitro cytokine release from human PBMCs: IL-6. Conditions: PBMC, lipopolysaccharide 50 pg/mL, 24 hours, read-out: inhibited the release of IL-6. The series is classed as cell-based. As for the experimental part: as §1, §2
The next series relates to TNFα. Description: In vitro cytokine release from human PBMCs: TNFα. The series is classed as cell-based. The note with it: PBMC, lipopolysaccharide 50 pg/mL, 24 hours, read-out: inhibited the release of TNFα. As for the experimental part: as §1, §2
The test system of another series is IL-4. Description: In vitro cytokine release from human PBMCs: IL-4. The series is classed as cell-based. Conditions: PBMC, ConA 20 μg/mL, 24 hours, read-out: inhibited the release of IL-4. The protocol: as §1, §2
The subject of a further series is IFNγ. Nature of the series: In vitro cytokine release from human PBMCs: IFNγ. Type of series: cell-based. Conditions: PBMC, ConA 5 μg/mL, 24 hours, read-out: inhibited the release of IFNγ. As for the experimental part:
as §1, §2

Series [1] deals with arachidonic acid induced ear swelling. Description: Topical arachidonic acid induced ear swelling model in mice. The series is classed as in vivo. Conditions: 30 min before and 15 min after challenge, at 90 minutes. The protocol:
Purified 3-methanesulfonylpropionitrile (MSPN, prepared according to Example 2) was dissolved in vehicle (ethanol/acetone 1:1) to 5% (w/v). The active compound, indomethacin (positive control in vehicle), and vehicle were evaluated for anti-inflammatory activity in the topical arachidonic acid induced ear swelling model in mice.
Male ICR derived mice weighing 22±2 g were used in this experiment. 5 mice were used for each group (active compound, positive control, and vehicle). All animals were maintained in a controlled temperature (22-24° C.) and humidity (60%-70%) environment with 12-hour light/dark cycles for at least one week prior to use.
Arachidonic acid (2 mg in 20 μL acetone) was applied topically onto the anterior and posterior surfaces of the right ear of test animals to induce inflammation. MSPN in vehicle (20 μL), indomethacin (0.3 mg) in vehicle, and vehicle (20 μL) was each applied 30 minutes before and 15 minutes after arachidonic acid challenge. At 90 minutes after arachidonic acid induction of ear edema, the thickness of the right ear and the left ear was measured and the difference calculated as an indication of the inflammation in the right ear. Significant activity is defined as a reduction (inhibition) in arachidonic acid induced ear swelling by ≥30% relative to the vehicle-treated group.

Series [2] in a line: Systemic (plasma) exposure of MSPN after oral and subcutaneous administration to rats. Type of series: in vivo. The note with it: after both the oral and subcutaneous routes. As for the experimental part: This study was done to determine the systemic (plasma) exposure of MSPN after administration by the oral and subcutaneous routes to rats.
MSPN substance was prepared in water for oral administration and in saline for subcutaneous administration. Rats weighed 282 to 295 g were used in the study. Male rats (n=2) were given a single dose at 50, 160 or 500 mg/kg by both oral and subcutaneous routes. Female rats (n=2) were dosed only at 500 mg/kg by both oral and subcutaneous routes. The blood was drawn from each rat at 0.25, 1, 2, 3, 4, 6, 12, 24, and 48 hours and measured for MSPN concentration by LC/MS/MS.

The nature of series [3]: Oral systemic toxicity administration in rats. The series is classed as in vivo.
The nature of series [4]: Oral systemic toxicity administration in dogs. Type of series: in vivo.
The nature of series [5]: Storage stability of the isolated product at room temperature. The series is classed as physicochemical. Conditions: oil or solid form, enclosed vessel, room temperature (22-28° C.). The source says:
In a preferred embodiment, the water-immiscible organic solvent is ethyl acetate. After the aqueous phase is removed, the ethyl acetate solvent is removed from the product by any means known to a person skilled in the art. For example, the ethyl acetate solvent can be removed by evaporation such as rotary evaporation or drying under nitrogen gas. After the ethyl acetate solvent is removed, the product 3-methanesulfonylpropionitrile is obtained in an oil form or in a solid form, which is stored in an enclosed vessel (such as a capped vial or bottle) and is stable for at least 1-3 months at room temperature (22-28° C.).

As to `C[C@@H]1C[C@H]2[C@@H]3CCC4=CC(=O)C=C[C@]4(C)[C@@]3(F)[C@@H](O)C[C@]2(C)[C@@]1(O)C(=O)CO` [Dexamethasone, dexamethasone, reference compound], the inhibition at 0.1 µM was determined as 24% in the series with IL-1β (dexamethasone 100 nM); 60% in the series on IL-6 (dexamethasone 100 nM); 42% with TNFα (dexamethasone 100 nM); 93% in the series on IL-4 (dexamethasone 100 nM); 87% with IFNγ (dexamethasone 100 nM).

On to `CS(=O)(=O)CCC#N` [MSPN, 3-methanesulfonylpropionitrile], for which the inhibition at 162 µM is 95% in the series on IL-1β (MSPN at 22 μg/mL (162 μM)); 98% with IL-6 (MSPN at 22 μg/mL (162 μM)); 98% in the series on TNFα (MSPN at 22 μg/mL (162 μM)); 7% in the series on IL-4 (MSPN at 22 μg/mL (162 μM)); 21% in the series on IFNγ (MSPN at 22 μg/mL (162 μM)). For the same compound, the “decrease in the ear swelling induced by arachidonic acid relative to vehicle-treated group” value in [1] (5% (w/v) in ethanol/acetone 1:1, 20 μL topical) is recorded as 31%. In series [2], the bioavailability result is recorded as “significant bioavailability”. In addition, the “effects seen after oral, systemic toxicity administration” value was “mild physiological effects including decreased body temperature, decreased respiratory rate, increased blood pressure and increased heart rate” in series [3] (rat, in vivo, po); “mild physiological effects including decreased body temperature, decreased respiratory rate, increased blood pressure and increased heart rate” in [4] (dog, in vivo, po). The “doses at which effects were seen, above expected human therapeutic doses” value in series [3] (rats, oral) is “over 2000 fold”; in [4] (dogs, oral), “over 2000 fold”. Besides, the stable on storage in series [5] is 1-3 months.

As to `COc1ccc2c(c1)c(CC(=O)O)c(C)n2C(=O)c1ccc(Cl)cc1` [indomethacin, reference compound], the “decrease in the ear swelling induced by arachidonic acid relative to vehicle-treated group” value in series [1] (0.3 mg in vehicle topical) turned out to be 60%.
